Reference: patent publication US12084456B2, “Isocarbostyril alkaloids and functionalization thereof” (The Board of Trustees of the University of Illinois, priority 2018, dated 2024)
Converted amounts (≈) assume the structure as drawn. Like-named read-outs stand apart in the source and are kept apart here.

Key:
A549 cells = settings: for IC50: read-out: Activity data for compounds: A549; for anticancer activity / cytotoxicity in words: human lung and colon cancer cell lines (A549 and HCT116)
HCT116 cells = assay: Cell viability assay (Alamar Blue, 72 h), HCT116; assay type: cell-based, human; settings: for IC50: read-out: Activity data for compounds: HCT116
[1] = Solubility assay (shake-flask method); assay type: physicochemical; settings: for increased solubility when compared to natural counterpart: 47 vs narciclasine, 52 vs pancratistatin; for solubility at 24 h: thermodynamic from solid, water, stirred 24 hours, shake-flask, LCMS, read-out: aq. Solubility
Procedure: A calibration was made for each compound by diluting a 1 mM DMSO solution to 10, 25, 50, 75, and 100 μM and then measuring their relative UV absorbance by LC-MS using a Kinetex© Evo C-18 50 mm column running a gradient from 5%→90% MeCN in water over 4 minutes at 0.4 mL/min.
The aqueous solubility of each compound was measured using the shake-flask method. 1.0 mg of compound was diluted to 40 mM with water then stirred for 24 hours. Each solution was then filtered, diluted 10-fold, and analyzed by LCMS. The relative UV absorbance of each compound was then compared to its calibration curve to quantify its aqueous solubility.

[2] = Mouse liver microsome assay; assay type: in vitro ADME; settings: mouse liver microsomes, 3 h, percentage remaining
Procedure: A mixture of PBS (pH 7.4), NADPH regenerating system solution A (Corning Life Sciences), and NADPH regenerating system solution B (Corning Life Sciences) was incubated at 37° C. in a shaking incubator for 5 min. Next, compound was added in DMSO (final concentration 50 μM, 0.5% DMSO) before ice-cold mouse liver microsomes (Thermo Fisher, male CD-1 mice, pooled) were added (final protein concentration of 1 mg/mL). An aliquot was immediately removed, quenched with an equal volume of 100 μM internal standard in ice-cold acetonitrile, and centrifuged at 13,000 rcf for 3 min. The supernatant was diluted 1:5 in ddH2O and analyzed by LC-MS. The reactions were incubated at 37° C. in a shaking incubator for 3 h. A second aliquot was removed, quenched and diluted as before and analyzed by LC-MS. The ratio of the areas of analyte:internal standard at 3 hours was compared to the ratio at t0 to determine the percentage of compound remaining. Analysis was performed using a Kinetex® Evo C-18 50 mm column running a gradient from 3%→95% MeCN in water over 9 minutes at 0.4 mL/min. Internal standard=(+)-pancratistatin tetaacetate S4.

[3] = A549 human lung cancer cells, 72 h, Alamar Blue
[4] = HCT-116, HCT116 human colon cancer cells, 72 h, Alamar Blue
[5] = HCT116 human colon cancer cells, 72 h, Alamar Blue

| SMILES | IC50 (A549 cells) | IC50 (HCT116 cells; Homo sapiens, HCT-116, 72 h) | anticancer activity / cytotoxicity in words (A549 cells) | IC50 (A549 cells; [3]) | IC50 (HCT116 cells; [4]) | further results |
| --- | --- | --- | --- | --- | --- | --- |
| O=C(O)Cc1c2c(cc3c1C(=O)N[C@@H]1C3=C[C@H](O)[C@@H](O)[C@H]1O)OCO2 [compound 45, 2-(7-lycoricidinyl)acetic acid] | 89 µM | 70 µM | – | – | – | – |
| O=C1N[C@@H]2C(=C[C@H](O)[C@@H](O)[C@H]2O)c2cc3c(c(CO)c21)OCO3 [compound 41, 7-hydroxymethyl lycoricidine] | > 100 µM | > 100 µM | less potent | – | – | – |
| O=C1N[C@@H]2C(=C[C@H](O)[C@@H](O)[C@H]2O)c2cc3c(cc21)OCO3 [compound 3, (+)-lycoricidine, reference compound] | – | – | – | 0.73 µM | 0.54 µM | – |
| Nc1c2c(cc3c1C(=O)N[C@H]1[C@H](O)[C@H](O)[C@@H](O)[C@H](O)[C@H]31)OCO2 [compound 52, 7-aminopancratistatin] | 9 µM | 3.4 µM | – | – | – | increased solubility when compared to natural counterpart [1]: 6 fold; solubility at 24 h [1]: 3460 ± 140 µg/mL (≈ 10.7 mM) |
| COC(=O)c1c2c(cc3c1C(=O)N[C@@H]1C3=C[C@H](O)[C@@H](O)[C@H]1O)OCO2 [compound 42, 7-carboxymethyl lycoricidine] | 39 µM | 29 µM | – | – | – | – |
| O=C1N[C@H]2[C@H](O)[C@H](O)[C@@H](O)[C@H](O)[C@@H]2c2cc3c(c(O)c21)OCO3 [compound 2, (+)-pancratistatin, reference compound] | 0.75 µM | 0.44 µM | – | – | – | solubility at 24 h [1]: 560 ± 70 µg/mL (≈ 1.72 mM) |
| COCc1c2c(cc3c1C(=O)N[C@@H]1C3=C[C@H](O)[C@@H](O)[C@H]1O)OCO2 [compound 40, 7-methoxymethyl lycoricidine] | 48 µM | 50 µM | – | – | – | – |
| CCOC(=O)Cc1c2c(cc3c1C(=O)N[C@@H]1C3=C[C@H](O)[C@@H](O)[C@H]1O)OCO2 [compound 44, ethyl 2-(7-lycoricidinyl)acetate] | – | – | – | 74 µM | 80 µM | – |
| [2H]C1([2H])Oc2cc3c(c(O)c2O1)C(=O)N[C@@H]1C3=C[C@H](O)[C@@H](O)[C@H]1O [4-d2, (+)-narciclasine 4-d2] | – | – | equipotent activity | 0.07 µM | – | greater metabolic stability when compared to narciclasine (4) [2]: ~30%; IC50 (HCT116 cells; [5]): 0.04 µM |
| O=C1N[C@@H]2C(=C[C@H](O)[C@@H](O)[C@H]2O)c2cc3c(c(C(=O)O)c21)OCO3 [compound 43, lycoricidine-7-carboxylic acid] | – | 80 µM | – | > 100 µM | – | – |
| CC(=O)Nc1c2c(cc3c1C(=O)N[C@@H]1C3=C[C@H](O)[C@@H](O)[C@H]1O)OCO2 [compound 49, 7-acetamidelycoricidine] | – | – | did not show significant cytotoxicity | > 100 µM | > 100 µM | – |
| CNc1c2c(cc3c1C(=O)N[C@@H]1C3=C[C@H](O)[C@@H](O)[C@H]1O)OCO2 [compound 48, N-methyl-7-aminolycoricidine] | – | – | did not show significant cytotoxicity | 28 µM | 12 µM | – |
| O=C1N[C@@H]2C(=C[C@H](O)[C@@H](O)[C@H]2O)c2cc3c(c(C(=O)c4ccccc4)c21)OCO3 [compound 39, 7-oxophenyl lycoricidine] | 44 µM | 35 µM | – | – | – | – |
| COc1cccc2c1C(=O)c1c(O)c3c(c(O)c1C2=O)C[C@@](O)(C(=O)CO)C[C@@H]3O[C@H]1C[C@H](N)[C@H](O)[C@H](C)O1 [doxorubicin, reference compound] | – | – | – | 0.22 µM | 0.147 µM | – |
| C=CCc1c2c(cc3c1C(=O)N[C@@H]1C3=C[C@H](O)[C@@H](O)[C@H]1O)OCO2 [compound 38, 7-allyl lycoricidine] | > 100 µM | > 100 µM | – | – | – | – |
| [2H]C1=C2c3cc4c(c(O)c3C(=O)N[C@@]2([2H])[C@]([2H])(O)[C@]([2H])(O)[C@@]1([2H])O)OCO4 [4-d5, (+)-narciclasine 4-d5] | – | – | equipotent activity | 0.066 µM | – | greater metabolic stability when compared to narciclasine (4) [2]: ~30%; IC50 (HCT116 cells; [5]): 0.043 µM |
| O=C1N[C@H]2[C@H](O)[C@H](O)[C@@H](O)[C@H](O)[C@@H]2c2cc3c(cc21)OCO3 [compound 1, (+)-7-deoxypancratistatin, reference compound] | 2.9 µM | 1.5 µM | – | – | – | – |
| Nc1c2c(cc3c1C(=O)N[C@@H]1C3=C[C@H](O)[C@@H](O)[C@H]1O)OCO2 [compound 47, 7-aminolycoricidine] | 0.38 µM | 0.39 µM | – | – | – | increased solubility when compared to natural counterpart [1]: 11 fold; solubility at 24 h [1]: 3740 ± 200 µg/mL (≈ 12.2 mM) |
| O=C1N[C@@H]2C(=C[C@H](O)[C@@H](O)[C@H]2O)c2cc3c(c(N4CCOCC4)c21)OCO3 [compound 51, 7-(4-morpholinyl)lycoricidine] | – | – | did not show significant cytotoxicity | 39 µM | 33 µM | – |
| O=C1N[C@@H]2C(=C[C@H](O)[C@@H](O)[C@H]2O)c2cc3c(c(N4CCCC4)c21)OCO3 [compound 50] | – | – | did not show significant cytotoxicity | > 100 µM | > 100 µM | – |
| O=C1N[C@@H]2C(=C[C@H](O)[C@@H](O)[C@H]2O)c2cc3c(c(O)c21)OCO3 [compound 4, (+)-narciclasine, reference compound] | – | – | – | 0.056 µM | – | IC50 (HCT116 cells; [5]): 0.0324 µM |
| N#Cc1c2c(cc3c1C(=O)N[C@@H]1C3=C[C@H](O)[C@@H](O)[C@H]1O)OCO2 [compound 46, 7-cyanolycoricidine] | 1.2 µM | 0.48 µM | – | – | – | activity compared to lycoricidine (3) in HCT116 cells (HCT116 cells): increased activity when compared to lycoricidine |
